“Also recorded” adds a separate entry of the source.
Experiments:
Format in all cases: in vivo, mouse (C57BL/6J male, 60% HFD DIO)
[1] = Example 2: body weight and body weight change rate, combined administration of HTD1801 and dapagliflozin or empagliflozin in DIO obesity model; conditions: HTD1801 250 mpk, dapagliflozin 10 mpk, empagliflozin 15 mpk p.o. QD, semaglutide 10 nmol/kg s.c. Q3D
Text: (§1) After 5-6-week-old C57BL/6J male mice were acclimatized for 1 week, the weight of each mouse was weighed, and the mice were randomly divided into a control group and a model group by taking the weight as a main index, where 12 mice in the control group were fed with common feed (CD), and the mice in the remaining model group were fed with 60% high-fat feed (60% HFD) for 10-12 weeks to construct a DIO obesity model, with the average body weight being not less than 40 g. The mice fed with 60% HFD were grabbed and acclimatized with a solvent for 3 days, where the acclimatization with a solvent was performed by oral gavage of 0.5% CMC-Na, once daily.
(§2) The food intake, the body weight, the body fat ratio, and the insulin level of the mice were respectively measured, followed by fasting blood glucose level, and the mice were randomly grouped according to Table 12 by taking the body weight as an index, and the remaining ungrouped mice were euthanized. After grouping, each group of mice was administered according to Table 12, the day of administration was defined as DO, and the administration volume of each drug was determined based on the results obtained by the calculation of 5 μL/g× mouse body weight (g).
(§3) For the combined administration group, the administration sequence and the administration time were kept consistent at each administration. The mice were continuously fed with high-fat feed during the administration period until the administration was finished. During administration, 1 food intake was measured per week (difference in feed weights at an interval of 24 h was measured); each group of mice was weighed once daily; blood was collected from the tail tip on day 16 and day 30, respectively, so as to measure fasting blood glucose levels once (blood was collected after fasting from 9:00 am to 3:[…]); on day 24 of administration (D23), the body fat ratio and the lean mass of each group of mice were measured by MRI (the measurement period was kept consistent with that before grouping); after 25 days of administration intervention (day 24), each group of mice was fasted for 6 h and subjected to OGTT (0 min, 15 min, 30 min, 60 min, 90 min, 120 min) to detect their blood glucose levels; after 29 days of administration intervention (day 28), each group of mice was fasted for 6 h and subjected to OGTT (0 min, 15 min, 30 min, 60 min, 90 min, 120 min), and meanwhile subjected to blood sampling via submaxillary vein (0 min, 15 min, 30 min, about 30 μL of blood sampled each time), and then the blood plasma was separated for detecting the insulin level by ELISA, where the separated blood plasma was more than 10 μL; the next day (D30) at the end of administration was set as the test endpoint, and the mice were fasted for 6 h in the morning and subjected to fasting blood glucose level measurement; subsequently, the mice were euthanized with CO2, blood was collected from the heart of each mouse for analysis, and each group of mice was dissected; the liver and subcutaneous, epididymal and mesenteric fat was collected, photographed and weighed, respectively.

[2] = Example 2: lean mass by MRI on day 23
Text: as §1, §2, §3
The body weight, the lean mass and the lean ratio of each animal in groups G1 to G8 were measured on day 23 and averaged for each group, and the results are shown in Table 16 below, and FIGS. 23 and 24.

[3] = Example 2: body fat mass by MRI on day 23
Text: as §1, §2, §3
The body weight, the body fat mass and the body fat ratio of each animal in groups G1 to G8 were measured on day 23 and averaged for each group, and the results are shown in Table 15 below, and FIGS. 21 and 22.

[4] = mean, day 23, HTD1801 250 mpk, dapagliflozin 10 mpk, empagliflozin 15 mpk p.o. QD

SMILES: OC[C@H]1O[C@@H](c2ccc(Cl)c(Cc3ccc(O[C@H]4CCOC4)cc3)c2)[C@H](O)[C@@H](O)[C@@H]1O [Empagliflozin, empagliflozin]
- body weight change / weight loss effect (in words) [1]: basically kept unchanged; also recorded: could not achieve the weight loss effect
- Body weight (mean) ([1]; day 0 (baseline)): 46.2 g
- Body weight change rate ([1]; day 0 (baseline)): 0.0%
- Body weight (mean) ([1]; day 1): 46.3 g
- Body weight change rate ([1]; day 1): 0.4%
- Body weight (mean) ([1]; day 2): 46.1 g
- Body weight change rate ([1]; day 2): −0.2%
- Body weight (mean) ([1]; day 3): 46.0 g
- Body weight change rate ([1]; day 3): −0.3%
- Body weight (mean) ([1]; day 4): 46.0 g
- Body weight change rate ([1]; day 4): −0.5%
- Body weight (mean) ([1]; day 5): 45.6 g
- Body weight change rate ([1]; day 5): −1.3%
- Body weight (mean) ([1]; day 6): 45.8 g
- Body weight change rate ([1]; day 6): −0.8%
- Body weight (mean) ([1]; day 7): 46.0 g
- Body weight change rate ([1]; day 7): −0.4%
- Body weight (mean) ([1]; day 8): 45.6 g
- Body weight change rate ([1]; day 8): −1.2%
- Body weight (mean) ([1]; day 9): 45.5 g
- Body weight change rate ([1]; day 9): −1.5%
- Body weight (mean) ([1]; day 10): 45.4 g
- Body weight change rate ([1]; day 10): −1.7%
- Body weight (mean) ([1]; day 11): 45.6 g
- Body weight change rate ([1]; day 11): −1.2%
- Body weight (mean) ([1]; day 12): 45.5 g
- Body weight change rate ([1]; day 12): −1.6%
- Body weight (mean) ([1]; day 13): 45.3 g
- Body weight change rate ([1]; day 13): −1.9%
- Body weight (mean) ([1]; day 14): 45.6 g
- Body weight change rate ([1]; day 14): −1.3%
- Body weight (mean) ([1]; day 15): 45.6 g
- Body weight change rate ([1]; day 15): −1.4%
- Body weight (mean) ([1]; day 16): 45.3 g
- Body weight change rate ([1]; day 16): −1.9%
- Body weight (mean) ([1]; day 17): 45.7 g
- Body weight change rate ([1]; day 17): −1.1%
- Body weight (mean) ([1]; day 18): 45.7 g
- Body weight change rate ([1]; day 18): −1.0%
- Body weight (mean) ([1]; day 19): 45.7 g
- Body weight change rate ([1]; day 19): −1.2%
- Body weight (mean) ([1]; day 20): 45.8 g
- Body weight change rate ([1]; day 20): −0.8%
- Body weight (mean) ([1]; day 21): 46.0 g
- Body weight change rate ([1]; day 21): −0.4%
- Body weight (mean) ([1]; day 22): 46.2 g
- Body weight change rate ([1]; day 22): −0.1%
- Body weight (mean) ([1]; day 23): 46.1 g
- Body weight change rate ([1]; day 23): −0.1%
- Body weight (mean) ([1]; day 24): 45.7 g
- Body weight change rate ([1]; day 24): −1.1%
- Body weight (mean) ([1]; day 25): 46.0 g
- Body weight change rate ([1]; day 25): −0.4%
- Body weight (mean) ([1]; day 26): 46.6 g
- Body weight change rate ([1]; day 26): 0.9%
- Body weight (mean) ([1]; day 27): 46.5 g
- Body weight change rate ([1]; day 27): 0.7%
- Body weight (mean) ([1]; day 28): 46.0 g
- Body weight change rate ([1]; day 28): −0.4%
- Body weight (mean) ([1]; day 29): 46.5 g
- Body weight change rate ([1]; day 29): 0.8%
- lean ratio (in words) ([2]; day 23, relative to model control group G2): slightly decreased
- Body weight ([2]; mean, day 23 (Table 16), HTD1801 250 mpk, dapagliflozin 10 mpk, empagliflozin 15 mpk p.o. QD): 46.8 g
- Lean (lean mass) [2, 4]: 4.2 g
- Lean ratio [2, 4]: 9.1%
- body fat mass and body fat ratio (in words) ([3]; day 23, relative to control group G2): increased
- Body weight ([3]; mean, day 23 (Table 15), HTD1801 250 mpk, dapagliflozin 10 mpk, empagliflozin 15 mpk p.o. QD): 46.8 g
- Body fat ratio [3, 4]: 49.3%
- Fat (body fat mass) [3, 4]: 23.0 g
